Laboratory results taken from US8846645B2, “Cyclohexane compounds and their use as antibiotics” (Rheinische Friedrich-Wilhelms Universität Bonn, priority 2010, dated 2014).
Values belong to the compound of their own block, whether it stands above or below them.

What was measured:
[1] = test system: glmS riboswitch of Staphylococcus aureus MU50; assay: metabolite-induced self-cleavage assay of the glmS riboswitch; type: biochemical
Experimental: The determination was performed using an in vitro preparation of the glmS riboswitch of Staphylococcus aureus MU50.
The glmS riboswitch DNA was amplified from genomic DNA of the S. aureus Mu50 strain (RKI Berlin) by standard Pfu polymerase chain reaction (PCR) using a 5′ primer containing the T7 promoter (GATAATACGACTCACTATAGGGCAGTTAAAGCGCCTGTGCAAATA, SEQ ID NO: 1) and a 3′ primer (ATCTTATTAACTTTGTCCATTAAGTCACCC, SEQ ID NO: 2) (20 cycles, annealing temperature of 60° C., homemade Pfu enzyme). The resultant of a 100 μl PCR reaction was phenol/chloroform extracted and precipitated using 3M NaOAc pH 5.4 and ethanol Pellets were resuspended in 10 μl diethylpyrocarbonate treated water (DEPC H2O) and used as template for T7 RNA polymerase-based transcription. […]
For this assay the following components were mixed to yield the stated final concentrations: cleavage buffer (50 mM Hepes pH 7.5, 200 mM KCl), MgCl2 (10 mM), glucosamine-6-phosphate (200 μM), glucosamine (GlcN) (200 μM), the compound according to formula (I) (200 μM) or the compound according to formula (3) (200 μM and 20 mM), radioactively labelled RNA (20 cps) and DEPC H2O ad 10 μl. […] The screens were read using a FujiFilm PhosphorImager FLA 3000 and evaluated using AIDA software.

[2] = test system: Staphylococcus aureus SG511; assay: determination of the minimal inhibitory concentration in Staphylococcus aureus SG511; type: cell-based; conditions: 0.5× Mueller-Hinton media, 18-24 h, OD 600 nm; FIG. 3
Experimental: The determination of the minimal inhibitory concentration (MIC) of the compounds according to formula (I) (carba-GlcN6P) and formula (3) (carba-GlcN) was performed in clear, round bottom 96-well plates. For this 100 μl of 0.5× Mueller-Hinton media (Oxoid, 300 gm/litre dehydrated infusion from beef, 17.5 gm/litre casein hydrolysate, 1.5 gm/litre starch, pH 7.3) were put into the 12 wells. To the first well 100 μl of 320 mM solution of carba-GlcN were added, mixed by pipetting and 100 μl of this mixture were transferred into the next well etc., generating a sequence final dilutions from 160 mM to 0.08 mM. Finally, SG511 cells that had been grown to an optical density (OD600) of 1 were diluted in 0.5× Mueller-Hinton media 1:10 000. From this dilution 100 μl were added to the already prepared plate leading to a final compound concentration of 80 mM-0.04 mM. After incubation for 10 min at RT and vivid shaking, the 96-well plate was transferred to a 37° C. incubator. After 18-24 h of incubation the plate was read at 600 nm using a standard plate reader.

[3] = test system: Staphylococcus aureus Mu50 cells; assay: growth inhibition in vancomycin intermediate resistant Staphylococcus aureus Mu50 in sugar free medium; type: cell-based
Experimental: For the preparation of 2× chemically defined medium (2×CDM), a minimal medium for Staphylococcus aureus without glucose, for the preparation of 500 ml the following components were mixed in individual groups before being combined:
After preparation of the individual groups, the groups I-IV were added to group V. The volume was adjusted to 480 ml with ddH2O. The pH was adjusted to 7 using HCl followed by adjusting the volume to the final 500 ml. Before storage at 4° C. the medium was sterile filtered.
The determination of the decrease in bacterial growth of Staphylococcus aureus Mu50 cells (RKI Berlin) depending on the concentration of the compound according to formula (3) (C GlcN) was performed in clear, sterile, round bottom 96-well plates with lid. Before treatment, the cells were grown in 2×CDM medium without glucose at 37° C. for 24 h under vigorous shaking.
For the determination of the growth inhibition 100 μl of 2×CDM were put into each of 12 wells. […] The 96 well plate was incubated at 37° C. in a Tecan Sunrise plate reader, which tracks the optical density (OD600) in 10 minute intervals and automatically shakes the plate for one minute every two minutes. Minimal inhibitory concentration was read after 18 h to 24 h of incubation. […]

[4] = test system: Staphylococcus aureus Mu50 cells; assay: synergistic effects with vancomycin treatment of S. aureus Mu50; type: cell-based; conditions: 0.0025 mM alone
Experimental: Before treatment, Staphylococcus aureus Mu50 cells (RKI Berlin) were grown in sterile, 15 ml flasks containing 5 ml of 2×CDM without glucose at 37° C. for 24 h under vigorous shaking.
For the determination of the growth inhibition 100 μl of 2×CDM containing 10 μM vancomycin were put into each of 12 wells. […] Finally, Mu50 cells that had been grown to an optical density (OD600) of 0.8 to 1 were diluted in 2×CDM to an optical density (OD600) of 0.2. From this dilution 100 μl were added to the already prepared plate leading to a final compound concentration of 80 mM, 40 mM, 20 mM, 10 mM, 5 mM, and 2.5 mM, a final concentration of 2.5 μM vancomycin and a final OD600 of 0.1 per well at the beginning of the measurement. The 96 well plate was incubated at 37° C. in a Tecan Sunrise plate reader, which tracks the optical density (OD600) in 10 minute intervals and automatically shakes the plate for one minute every two minutes. Minimal inhibitory concentration was read after 18 h to 24 h of incubation. Control cells were treated without compounds or with 2.5 μM vancomycin.

Structure (SMILES): N[C@@H]1[C@@H](O)[C@H](O)[C@@H](COP(=O)(O)O)C[C@@H]1O [formula (1), (1S,2S,3R,4R,5R)-2-amino-5-((phosphonooxy)methyl)-cyclohexane-1,3,4-triol]
activation of the glmS-riboswitch compared with the native metabolite ([1]; versus GlcN6P): almost the same potency
bacterial growth of Staphylococcus aureus [2]: effectively inhibit the growth

EC50 ([1]; concentration dependent analysis, 37° C., 30 min): 3.61 ± 0.39 µM
Structure (SMILES): N[C@H]1C(O)O[C@H](COP(=O)(O)O)[C@@H](O)[C@@H]1O (stereo partly shown) [GlcN6P, glucosamine-6-phosphate, reference compound]

MIC ([3]; Staphylococcus aureus, MU50CELLS, 2×CDM without glucose, read after 18 h to 24 h, n=3, read-out: minimal inhibitory concentration (MIC)): 625 µM
Structure (SMILES): NC1C(O)CC(CO)C(O)C1O (stereo not shown) [formula (3), Carba-glucosamine]
concentration at which measureable growth inhibition started ([3]; sugar free medium, referring to control cells grown without compounds, FIG. 4): 0.156 mM

Structure (SMILES): CN[C@H](CC(C)C)C(=O)N[C@H]1C(=O)N[C@@H](CC(N)=O)C(=O)N[C@H]2C(=O)N[C@H]3C(=O)N[C@H](C(=O)N[C@H](C(=O)O)c4cc(O)cc(O)c4-c4cc3ccc4O)[C@H](O)c3ccc(c(Cl)c3)Oc3cc2cc(c3O[C@@H]2O[C@H](CO)[C@@H](O)[C@H](O)[C@H]2O[C@H]2C[C@](C)(N)[C@H](O)[C@H](C)O2)Oc2ccc(cc2Cl)[C@H]1O [vancomycin]
bacterial growth (OD600) compared to untreated cells ([4]; after 10 h, FIG. 5): no change in the bacterial growth
bacterial growth (OD600) compared to untreated cells ([4]; over 18 h of incubation, FIG. 6): no change in the bacterial growth
